According to ChEMBL document CHEMBL5143570, “Development of naringenin-O-carbamate derivatives as multi-target-directed liagnds for the treatment of Alzheimer's disease” (Bioorg Med Chem Lett, 2022):
Activity calls are given as the source filed them. The calls are words filed in the database; no cut-off is given here.

Legend:
Acetylcholinesterase [1] = biological target: T1, Acetylcholinesterase (Rattus norvegicus, UniProt P37136); assay: Inhibition of rat cortex AChE using acetylthiocholine as substrate incubated for 15 mins by DTNB reagent based Ellman's method; type: tissue-based
T1 sequence (P37136 whole entry): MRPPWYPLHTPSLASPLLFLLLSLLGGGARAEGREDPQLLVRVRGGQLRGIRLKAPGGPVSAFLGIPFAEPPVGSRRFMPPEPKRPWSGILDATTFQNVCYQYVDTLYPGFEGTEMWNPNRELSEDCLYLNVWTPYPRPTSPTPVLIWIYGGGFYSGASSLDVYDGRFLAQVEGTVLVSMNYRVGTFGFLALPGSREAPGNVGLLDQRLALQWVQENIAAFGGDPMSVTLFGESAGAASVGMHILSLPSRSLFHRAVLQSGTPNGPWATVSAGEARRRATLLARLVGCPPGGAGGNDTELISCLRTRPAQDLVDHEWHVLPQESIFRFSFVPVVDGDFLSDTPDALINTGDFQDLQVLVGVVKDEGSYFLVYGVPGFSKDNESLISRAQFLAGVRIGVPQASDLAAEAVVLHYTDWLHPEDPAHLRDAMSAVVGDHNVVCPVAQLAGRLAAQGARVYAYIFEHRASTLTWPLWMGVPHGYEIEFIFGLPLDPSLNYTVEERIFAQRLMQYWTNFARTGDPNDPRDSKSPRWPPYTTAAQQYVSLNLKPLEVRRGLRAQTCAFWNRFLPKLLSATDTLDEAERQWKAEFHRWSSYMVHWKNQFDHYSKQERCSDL

Butyrylcholinesterase = Butyrylcholinesterase (Rattus norvegicus, UniProt Q9JKC1); assay: Inhibition of rat serum Butyrylcholine esterase using butyrylthiocholine as substrate incubated for 15 mins by DTNB reagent based Ellman's method; type: cell-free
Sequence of Butyrylcholinesterase (Q9JKC1 whole entry): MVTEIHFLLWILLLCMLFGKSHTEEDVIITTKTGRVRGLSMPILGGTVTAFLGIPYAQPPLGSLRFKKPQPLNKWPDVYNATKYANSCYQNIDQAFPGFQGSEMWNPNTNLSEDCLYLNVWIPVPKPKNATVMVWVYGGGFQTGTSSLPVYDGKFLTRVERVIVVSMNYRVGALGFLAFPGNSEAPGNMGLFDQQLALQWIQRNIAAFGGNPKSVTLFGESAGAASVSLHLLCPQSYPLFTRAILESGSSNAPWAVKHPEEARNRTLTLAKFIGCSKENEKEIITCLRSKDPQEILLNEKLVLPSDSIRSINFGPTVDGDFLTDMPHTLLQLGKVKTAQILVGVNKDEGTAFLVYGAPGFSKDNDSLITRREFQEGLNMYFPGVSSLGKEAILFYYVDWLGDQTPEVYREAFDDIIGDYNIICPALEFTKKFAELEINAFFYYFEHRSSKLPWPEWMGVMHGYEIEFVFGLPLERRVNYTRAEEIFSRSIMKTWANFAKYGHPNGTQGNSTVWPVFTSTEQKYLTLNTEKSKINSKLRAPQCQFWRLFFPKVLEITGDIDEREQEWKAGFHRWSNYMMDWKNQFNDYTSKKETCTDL

Cholinesterase = Cholinesterase (Homo sapiens, UniProt P06276); assay: Inhibition of human serum BuChE using butyrylthiocholine as substrate incubated for 15 mins by DTNB reagent based Ellman's method; type: cell-free
Sequence of Cholinesterase (P06276 whole entry): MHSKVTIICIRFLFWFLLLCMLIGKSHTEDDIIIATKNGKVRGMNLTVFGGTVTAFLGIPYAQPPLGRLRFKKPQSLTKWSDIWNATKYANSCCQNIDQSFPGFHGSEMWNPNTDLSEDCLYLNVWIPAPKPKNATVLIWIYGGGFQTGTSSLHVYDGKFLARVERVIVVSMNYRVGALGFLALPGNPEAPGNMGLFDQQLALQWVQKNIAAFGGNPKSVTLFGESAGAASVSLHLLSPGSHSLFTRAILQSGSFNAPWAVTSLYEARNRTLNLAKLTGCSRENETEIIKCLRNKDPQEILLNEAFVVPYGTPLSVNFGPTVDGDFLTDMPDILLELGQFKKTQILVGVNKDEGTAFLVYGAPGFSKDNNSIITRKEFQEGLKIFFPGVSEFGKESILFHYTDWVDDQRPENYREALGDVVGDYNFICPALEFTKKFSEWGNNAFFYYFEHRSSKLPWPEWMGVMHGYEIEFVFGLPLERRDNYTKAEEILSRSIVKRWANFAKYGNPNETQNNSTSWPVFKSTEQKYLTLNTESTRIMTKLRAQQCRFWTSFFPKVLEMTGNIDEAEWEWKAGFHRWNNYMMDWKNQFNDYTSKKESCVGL

Rattus norvegicus = species: Rattus norvegicus; assay: Selectivity index, ratio of IC50 for inhibition of rat serum butyrylcholine esterase to IC50 for inhibition of rat cortex AChE
Acetylcholinesterase [2] = biological target: T2, Acetylcholinesterase (Homo sapiens, UniProt P22303); assay: Inhibition of human erythrocyte AChE using acetylthiocholine as substrate incubated for 15 mins by DTNB reagent based Ellman's method; type: cell-based
T2 sequence (P22303 whole entry): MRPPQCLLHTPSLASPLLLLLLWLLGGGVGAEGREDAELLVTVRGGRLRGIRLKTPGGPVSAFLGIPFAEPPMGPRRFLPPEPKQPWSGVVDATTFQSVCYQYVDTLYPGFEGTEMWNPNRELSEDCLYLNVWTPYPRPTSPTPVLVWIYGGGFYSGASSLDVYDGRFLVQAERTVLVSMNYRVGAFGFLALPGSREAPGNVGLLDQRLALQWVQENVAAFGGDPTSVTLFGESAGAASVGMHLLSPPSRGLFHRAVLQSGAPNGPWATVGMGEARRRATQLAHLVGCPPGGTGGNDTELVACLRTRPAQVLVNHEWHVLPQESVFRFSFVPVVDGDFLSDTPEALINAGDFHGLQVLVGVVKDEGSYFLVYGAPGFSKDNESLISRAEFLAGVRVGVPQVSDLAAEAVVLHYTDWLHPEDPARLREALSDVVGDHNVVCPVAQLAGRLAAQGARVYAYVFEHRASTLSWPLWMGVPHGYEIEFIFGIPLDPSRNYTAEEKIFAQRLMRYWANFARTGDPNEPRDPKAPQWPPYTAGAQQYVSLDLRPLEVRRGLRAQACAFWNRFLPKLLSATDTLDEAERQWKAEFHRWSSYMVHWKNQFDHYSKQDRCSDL

[3] = Antioxidant activity assessed as trolox equivalent of ORAC radical scavenging activity by ORAC-FL assay; type: functional
Homo sapiens = species: Homo sapiens; assay: Selectivity index, ratio of IC50 for inhibition of human serum BuChE to IC50 for inhibition of human erythrocyte AChE
Acetylcholinesterase [4] = biological target: T2, Acetylcholinesterase; assay: Pseudo-irreversible inhibition of human AChE assessed as restoration of enzyme activity at 0.1 time of IC50 concentration incubated for 120 mins by dilution method relative to control; parameters: scale not given: the % may be the effect or the level left
[5] = biological target: Amyloid-beta precursor protein (Homo sapiens) (UniProt P05067); assay: Inhibition of amyloid beta (1 to 42) (unknown origin) self-induced fibril formation at 25 uM incubated for 24 hrs by transmission electron microscopic analysis
Sequence of Amyloid-beta precursor protein (Homo sapiens) (P05067 whole entry): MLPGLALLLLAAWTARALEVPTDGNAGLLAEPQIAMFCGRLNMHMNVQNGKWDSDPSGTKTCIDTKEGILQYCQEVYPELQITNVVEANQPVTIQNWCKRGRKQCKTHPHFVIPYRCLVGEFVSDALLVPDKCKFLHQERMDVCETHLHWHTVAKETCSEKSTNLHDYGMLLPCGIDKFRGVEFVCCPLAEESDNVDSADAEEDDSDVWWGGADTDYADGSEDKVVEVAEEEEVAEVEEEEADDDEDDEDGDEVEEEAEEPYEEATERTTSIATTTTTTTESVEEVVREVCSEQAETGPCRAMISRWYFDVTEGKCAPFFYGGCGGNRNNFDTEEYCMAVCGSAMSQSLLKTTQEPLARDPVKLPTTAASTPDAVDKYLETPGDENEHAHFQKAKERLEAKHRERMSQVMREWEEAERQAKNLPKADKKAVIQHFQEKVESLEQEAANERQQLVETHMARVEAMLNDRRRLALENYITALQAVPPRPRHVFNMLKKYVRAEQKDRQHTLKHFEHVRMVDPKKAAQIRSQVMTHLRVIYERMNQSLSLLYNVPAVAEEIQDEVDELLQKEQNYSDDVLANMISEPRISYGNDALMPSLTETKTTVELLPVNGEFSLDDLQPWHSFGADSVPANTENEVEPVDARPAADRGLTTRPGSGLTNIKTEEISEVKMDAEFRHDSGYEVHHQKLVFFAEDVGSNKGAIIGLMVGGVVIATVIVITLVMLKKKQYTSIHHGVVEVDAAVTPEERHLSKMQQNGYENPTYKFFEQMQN

HT-22 [6] = assay: Effect on tau protein expression in pRK5-GFP-Tau plasmid transfected mouse HT-22 cells assessed as fluorescence intensity by measuring decrease in GFP level at 5 to 20 uM incubated for 24 hrs by western blot analysis; type: functional, cell-based; conditions: dose 5-20 µM
[7] = Cytotoxicity against mouse HT-22 cells assessed as reduction in cell viability by MTT assay; type: toxicity, cell-based
[8] = Effect on tau protein expression in pRK5-GFP-Tau P301L plasmid transfected mouse HT-22 cells assessed as reduction in fluorescence intensity at 5 uM by fluorescence microscopic analysis (reference value: 35.0); type: functional
[9] = Effect on tau protein expression in pRK5-GFP-Tau P301L plasmid transfected mouse HT-22 cells assessed as reduction in fluorescence intensity at 10 uM by fluorescence microscopic analysis (reference value: 35.0); type: functional
HT-22 [10] = assay: Effect on APP protein expression in pEGFP-N1-APP plasmid transfected mouse HT-22 cells assessed as fluorescence intensity by measuring decrease in GFP level incubated for 24 hrs by western blot analysis; type: functional, cell-based; conditions: dose 5-20 µM, DDE = dose-dependent effect
PC-12 [11] = assay: Cytotoxicity against rat PC-12 cells assessed as reduction in cell viability measured upto 40 uM incubated for 72 hrs by MTT assay; type: toxicity, cell-based; conditions: pc-12, 72 h
PC-12 [12] = assay: Neuroprotective activity against H2O2-induced cytotoxicity in rat PC-12 cells assessed as increase in cell viability at 5 uM by MTT assay relative to control; type: functional
[13] = Effect on tau protein expression in pRK5-GFP-Tau plasmid transfected mouse HT-22 cells assessed as reduction in fluorescence intensity at 20 uM incubated for 24 hrs by fluorescence microscopic analysis (reference value: 36.8); type: functional
PC-12 [14] = assay: Neuroprotective activity against H2O2-induced cytotoxicity in rat PC-12 cells assessed as increase in cell viability at 10 uM by MTT assay relative to control; type: functional
[15] = Effect on tau protein expression in pRK5-GFP-Tau plasmid transfected mouse HT-22 cells assessed as reduction in fluorescence intensity at 5 uM incubated for 24 hrs by fluorescence microscopic analysis (reference value: 36.8); type: functional
[16] = Effect on APP protein expression in pEGFP-N1-APP plasmid transfected mouse HT-22 cells assessed as decrease in fluorescence intensity at 20 uM incubated for 24 hrs by fluorescence microscopic analysis (reference value: 30.7); type: functional
[17] = biological target: Amyloid-beta precursor protein (Homo sapiens) (UniProt P05067); assay: Inhibition of amyloid beta (1 to 42 ) (unknown origin) self-induced aggregation at 25 uM by thioflavin-T fluorescence method relative to control
[18] = Effect on APP protein expression in pEGFP-N1-APP plasmid transfected mouse HT-22 cells assessed as decrease in fluorescence intensity at 10 uM incubated for 24 hrs by fluorescence microscopic analysis (reference value: 30.7); type: functional
[19] = Effect on APP protein expression in pEGFP-N1-APP plasmid transfected mouse HT-22 cells assessed as decrease in fluorescence intensity at 5 uM incubated for 24 hrs by fluorescence microscopic analysis (reference value: 30.7); type: functional
[20] = Effect on tau protein expression in pRK5-GFP-Tau P301L plasmid transfected mouse HT-22 cells assessed as reduction in fluorescence intensity at 20 uM by fluorescence microscopic analysis (reference value: 35.0); type: functional
[21] = Effect on tau protein expression in pRK5-GFP-Tau plasmid transfected mouse HT-22 cells assessed as reduction in fluorescence intensity at 10 uM incubated for 24 hrs by fluorescence microscopic analysis (reference value: 36.8); type: functional
PC-12 [22] = assay: Neuroprotective activity against H2O2-induced cytotoxicity in rat PC-12 cells assessed as increase in cell viability at 100 uM by MTT assay relative to control; type: functional, cell-based

Compound: CCN(C)C(=O)Oc1ccc(-c2cc(=O)c3c(OC(=O)N(C)CC)cc(OC(=O)N(C)CC)cc3o2)cc1
- IC50 (Acetylcholinesterase [1]): 6.9 µM
- IC50 (Butyrylcholinesterase): 14.3 µM
- IC50 (Cholinesterase): 20.6 µM
- Ratio IC50 (Rattus norvegicus): 2.1
- IC50 (Acetylcholinesterase [2]): 12.3 µM
- Activity [3]: 0.2
- Ratio IC50 (Homo sapiens): 1.7

Compound: CCN(C)C(=O)Oc1cccc([C@H](C)N(C)C)c1
- Activity (Acetylcholinesterase [4]): 76.3%

Compound: CCN(C)C(=O)Oc1cc(O)c2c(c1)OC(c1ccc(O)cc1)CC2=O (stereo not given)
- IC50 (Acetylcholinesterase [1]): 11.6 µM
- IC50 (Butyrylcholinesterase): 28.2 µM
- Ratio IC50 (Rattus norvegicus): 2.4
- Activity [3]: 2.7

Compound: CCN(C)C(=O)Oc1ccc(C2CC(=O)c3c(OC(=O)N(C)CC)cc(OC(=O)N(C)CC)cc3O2)cc1 (stereo not given)
- IC50 (Acetylcholinesterase [1]): 6.7 µM
- inhibition [5]: Active
- Activity (HT-22 [6]): Active
- IC50 [7]: 215 µM
- Flu intensity [8]: 18.7
- Flu intensity [9]: 17.6
- Activity (HT-22 [10]): Dde
- Activity (PC-12 [11]): Non-Toxic
- Activity (PC-12 [12]): 59.3%
- IC50 (Butyrylcholinesterase): 20.2 µM
- IC50 (Cholinesterase): 24.5 µM
- IC50 (Acetylcholinesterase [2]): 10.6 µM
- Flu intensity [13]: 6.48
- Activity (PC-12 [14]): 64.1%
- Activity (Acetylcholinesterase [4]): 75.9%
- Activity [3]: 0.2
- Flu intensity [15]: 23.7
- Flu intensity [16]: 20.7
- inhibition [17]: 42.1%
- Flu intensity [18]: 22.1
- Flu intensity [19]: 22.3
- Flu intensity [20]: 16
- Flu intensity [21]: 20.7

Compound: O=C1CC(c2ccc(O)cc2)Oc2cc(O)cc(O)c21 (stereo not given)
- IC50 (Acetylcholinesterase [1]): > 50 µM
- IC50 (Butyrylcholinesterase): > 50 µM
- Activity [3]: 5.1

Compound: CCN(C)C(=O)Oc1ccc(-c2coc3cc(OC(=O)N(C)CC)cc(OC(=O)N(C)CC)c3c2=O)cc1
- IC50 (Acetylcholinesterase [1]): 8.7 µM
- IC50 (Butyrylcholinesterase): 16.9 µM
- Ratio IC50 (Rattus norvegicus): 1.9
- Activity [3]: 0.3

Compound: CCN(C)C(=O)Oc1ccc(-c2coc3cc(OC(=O)N(C)CC)cc(O)c3c2=O)cc1
- IC50 (Acetylcholinesterase [1]): 11.2 µM
- IC50 (Butyrylcholinesterase): 29.3 µM
- Ratio IC50 (Rattus norvegicus): 2.6
- Activity [3]: 1.2

Compound: O=c1cc(-c2ccc(O)cc2)oc2cc(O)cc(O)c12 [APIGENIN]
- IC50 (Acetylcholinesterase [1]): > 50 µM
- IC50 (Butyrylcholinesterase): > 50 µM
- Activity [3]: 5.5

Compound: CCN(CC)C(=O)Oc1ccc(C2CC(=O)c3c(O)cc(OC(=O)N(CC)CC)cc3O2)cc1 (stereo not given)
- IC50 (Acetylcholinesterase [1]): 10.7 µM
- IC50 (Butyrylcholinesterase): 22.4 µM
- Ratio IC50 (Rattus norvegicus): 2.1
- Activity [3]: 1.1

Compound: CON(C)C(=O)Oc1ccc(C2CC(=O)c3c(O)cc(OC(=O)N(C)OC)cc3O2)cc1 (stereo not given)
- IC50 (Acetylcholinesterase [1]): 9.9 µM
- IC50 (Butyrylcholinesterase): 18.1 µM
- Ratio IC50 (Rattus norvegicus): 1.8
- Activity [3]: 1.2

Compound: O=C1CC(c2ccc(OC(=O)N3CCOCC3)cc2)Oc2cc(OC(=O)N3CCOCC3)cc(O)c21 (stereo not given)
- IC50 (Acetylcholinesterase [1]): 11.3 µM
- IC50 (Butyrylcholinesterase): 23.6 µM
- Ratio IC50 (Rattus norvegicus): 2.1
- Activity [3]: 1

Compound: CON(C)C(=O)Oc1ccc(-c2coc3cc(OC(=O)N(C)OC)cc(O)c3c2=O)cc1
- IC50 (Acetylcholinesterase [1]): 13.5 µM
- IC50 (Butyrylcholinesterase): 27.1 µM
- Ratio IC50 (Rattus norvegicus): 2
- Activity [3]: 1

Compound: O=c1c(-c2ccc(O)cc2)coc2cc(O)cc(O)c12 [GENISTEIN]
- IC50 (Acetylcholinesterase [1]): > 50 µM
- IC50 (Butyrylcholinesterase): > 50 µM
- Activity [3]: 6.2

Compound: CON(C)C(=O)Oc1ccc(-c2cc(=O)c3c(O)cc(OC(=O)N(C)OC)cc3o2)cc1
- IC50 (Acetylcholinesterase [1]): 9.3 µM
- IC50 (Butyrylcholinesterase): 19.7 µM
- Ratio IC50 (Rattus norvegicus): 2.1
- Activity [3]: 1.1

Compound: O=C1CC(c2ccc(OC(=O)N3CCCC3)cc2)Oc2cc(OC(=O)N3CCCC3)cc(O)c21 (stereo not given)
- IC50 (Acetylcholinesterase [1]): 14.5 µM
- IC50 (Butyrylcholinesterase): 19.8 µM
- Ratio IC50 (Rattus norvegicus): 1.4
- Activity [3]: 1.1

Compound: VITAMIN E
- Activity (PC-12 [22]): 67.3%

Compound: CCN(C)C(=O)Oc1ccc(-c2cc(=O)c3c(O)cc(OC(=O)N(C)CC)cc3o2)cc1
- IC50 (Acetylcholinesterase [1]): 5.7 µM
- IC50 (Butyrylcholinesterase): 15.6 µM
- IC50 (Cholinesterase): 18.7 µM
- Ratio IC50 (Rattus norvegicus): 2.7
- IC50 (Acetylcholinesterase [2]): 7.9 µM
- Activity [3]: 1.3
- Ratio IC50 (Homo sapiens): 2.4

Compound: CCN(CC)C(=O)Oc1cc(O)c2c(c1)OC(c1ccc(O)cc1)CC2=O (stereo not given)
- IC50 (Acetylcholinesterase [1]): 15.1 µM
- IC50 (Butyrylcholinesterase): 26.7 µM
- Ratio IC50 (Rattus norvegicus): 1.8
- Activity [3]: 2.5

Compound: O=C1CC(c2ccc(OC(=O)N(c3ccccc3)c3ccccc3)cc2)Oc2cc(OC(=O)N(c3ccccc3)c3ccccc3)cc(O)c21 (stereo not given)
- IC50 (Acetylcholinesterase [1]): 18.2 µM
- IC50 (Butyrylcholinesterase): 25.2 µM
- Ratio IC50 (Rattus norvegicus): 1.4
- Activity [3]: 1.1

Compound: CN(C)C(=O)Oc1ccc(C2CC(=O)c3c(O)cc(OC(=O)N(C)C)cc3O2)cc1 (stereo not given)
- IC50 (Acetylcholinesterase [1]): 14.2 µM
- IC50 (Butyrylcholinesterase): 26.5 µM
- Activity [3]: 0.9
